Laboratory results from paper PMC4144829 (Nature chemical biology, 2014).
Like-named read-outs stand apart in the source and are kept apart here.

Assays:
[1] = system: U2OS cells; assay: FANCD2 subnuclear foci formation; assay type: cell-based, human; conditions: ML323 30 μM, cisplatin 5 μM, vehicle 13.1%
[2] = system: H596 cells; assay: cellular activity assay of USP1-UAF1; assay type: cell-based, human; conditions: for change in levels of Ub-PCNA and Ub-FANCD2: H596, 6 h, cisplatin 100 μM, ML323 30 μM
[3] = system: H596 cells; assay: cell cycle analysis; assay type: cell-based, human
[4] = system: H460 cell line; assay: colony-forming assay; conditions: read-out: EC50 of cell killing; cisplatin-sensitive NSCLC H460
[5] = system: U2OS cells; assay: SCE assay; assay type: cell-based, human; conditions: ML323 30 μM, cisplatin 15 μM, control 0.12
[6] = system: H596 cells; assay: colony-forming assay; assay type: cell-based, human
[7] = system: PD20 + D2 cells; assay: cytotoxicity assay; conditions: PD20 + D2, cisplatin alone
[8] = system: human USP1-UAF1; conditions: cited from earlier work
[9] = target: USP1 in HEK293T cells (Homo sapiens, UniProt O94782); assay: cellular activity-based DUB profiling with HA-Ub-VME; assay type: cell-based; conditions: 100 μM cisplatin, ML323 0.5 to 50 μM
Sequence of USP1 in HEK293T cells (O94782 whole entry): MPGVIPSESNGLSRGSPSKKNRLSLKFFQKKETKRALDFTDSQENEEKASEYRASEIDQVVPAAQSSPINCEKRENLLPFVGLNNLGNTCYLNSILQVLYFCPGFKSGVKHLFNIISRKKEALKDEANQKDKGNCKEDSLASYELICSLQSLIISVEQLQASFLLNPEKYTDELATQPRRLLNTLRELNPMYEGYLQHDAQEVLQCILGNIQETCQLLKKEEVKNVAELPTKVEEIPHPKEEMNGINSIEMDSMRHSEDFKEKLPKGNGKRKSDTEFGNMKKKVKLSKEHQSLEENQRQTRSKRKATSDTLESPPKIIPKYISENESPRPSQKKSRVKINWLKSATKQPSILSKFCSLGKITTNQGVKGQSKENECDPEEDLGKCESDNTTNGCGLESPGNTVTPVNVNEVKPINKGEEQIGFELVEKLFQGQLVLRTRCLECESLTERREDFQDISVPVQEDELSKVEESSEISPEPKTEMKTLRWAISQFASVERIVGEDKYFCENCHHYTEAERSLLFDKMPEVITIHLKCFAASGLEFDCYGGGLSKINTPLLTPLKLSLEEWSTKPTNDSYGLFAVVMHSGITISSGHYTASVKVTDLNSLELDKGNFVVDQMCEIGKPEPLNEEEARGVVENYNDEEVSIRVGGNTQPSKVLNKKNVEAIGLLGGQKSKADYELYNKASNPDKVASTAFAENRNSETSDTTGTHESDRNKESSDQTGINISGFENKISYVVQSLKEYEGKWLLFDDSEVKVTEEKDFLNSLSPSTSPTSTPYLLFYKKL
Sequence of USP1 in HEK293T cells (Q8TAF3 whole entry partner): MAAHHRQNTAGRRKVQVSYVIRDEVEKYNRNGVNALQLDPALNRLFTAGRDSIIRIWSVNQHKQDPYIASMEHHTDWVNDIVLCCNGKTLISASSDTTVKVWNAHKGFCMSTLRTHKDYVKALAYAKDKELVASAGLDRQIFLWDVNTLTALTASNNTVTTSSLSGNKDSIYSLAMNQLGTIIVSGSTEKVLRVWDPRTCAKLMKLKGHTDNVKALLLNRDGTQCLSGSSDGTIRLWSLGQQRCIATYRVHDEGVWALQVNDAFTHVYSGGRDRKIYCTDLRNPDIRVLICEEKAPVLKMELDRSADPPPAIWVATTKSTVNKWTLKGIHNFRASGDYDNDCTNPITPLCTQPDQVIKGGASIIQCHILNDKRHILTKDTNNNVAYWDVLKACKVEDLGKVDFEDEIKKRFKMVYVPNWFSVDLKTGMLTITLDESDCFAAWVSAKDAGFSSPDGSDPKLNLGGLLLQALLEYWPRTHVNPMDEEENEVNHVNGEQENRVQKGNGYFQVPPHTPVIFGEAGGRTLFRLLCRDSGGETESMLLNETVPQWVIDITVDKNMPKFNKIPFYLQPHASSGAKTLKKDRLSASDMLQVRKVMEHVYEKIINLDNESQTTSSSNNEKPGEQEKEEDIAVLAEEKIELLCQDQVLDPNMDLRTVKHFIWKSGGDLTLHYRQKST

[10] = target: USP2 (Homo sapiens, UniProt O75604); assay: in vitro DUB selectivity; assay type: biochemical
Sequence of USP2 (O75604 259-605): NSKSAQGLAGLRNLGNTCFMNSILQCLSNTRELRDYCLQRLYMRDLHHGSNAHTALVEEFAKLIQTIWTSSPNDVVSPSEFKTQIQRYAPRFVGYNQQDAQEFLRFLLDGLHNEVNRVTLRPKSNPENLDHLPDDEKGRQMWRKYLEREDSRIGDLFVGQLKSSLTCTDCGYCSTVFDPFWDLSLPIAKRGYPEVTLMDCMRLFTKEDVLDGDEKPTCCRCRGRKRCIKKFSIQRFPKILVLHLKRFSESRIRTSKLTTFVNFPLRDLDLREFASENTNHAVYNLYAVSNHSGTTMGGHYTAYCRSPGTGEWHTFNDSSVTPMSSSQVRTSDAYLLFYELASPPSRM

[11] = system: USP1 shRNA knockdown H596 cells; assay: cellular Ub-PCNA level in USP1 shRNA knockdown cells; assay type: cell-based, human
[12] = system: XPV + Polη cells; assay: UV sensitivity colony-forming assay; conditions: 20 μM ML323
[13] = target: T1, USP1-UAF1 (Homo sapiens, UniProt O94782); assay: native gel electrophoresis of USP1-UAF1 complex; conditions: up to 100 times its IC50
T1 sequence (O94782 whole entry): as the sequence (O94782 whole entry) above
T1 sequence (Q8TAF3 whole entry partner): as the sequence (Q8TAF3 whole entry partner) above

[14] = system: XPV cells; assay: UV sensitivity colony-forming assay; assay type: cell-based, human; conditions: 20 μM ML323
[15] = target: USP46-UAF1 (Homo sapiens, UniProt P62068); assay: in vitro DUB selectivity; assay type: biochemical
Sequence of USP46-UAF1 (P62068 whole entry): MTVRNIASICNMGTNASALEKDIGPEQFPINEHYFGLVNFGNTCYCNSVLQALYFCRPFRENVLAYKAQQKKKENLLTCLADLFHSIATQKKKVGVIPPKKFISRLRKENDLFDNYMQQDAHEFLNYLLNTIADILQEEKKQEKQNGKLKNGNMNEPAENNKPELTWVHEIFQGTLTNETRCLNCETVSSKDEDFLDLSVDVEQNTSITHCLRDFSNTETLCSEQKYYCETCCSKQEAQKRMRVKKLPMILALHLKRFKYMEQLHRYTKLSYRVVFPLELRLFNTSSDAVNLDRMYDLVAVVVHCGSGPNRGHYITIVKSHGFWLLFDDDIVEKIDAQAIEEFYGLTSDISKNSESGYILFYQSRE
Sequence of USP46-UAF1 (Q8TAF3 whole entry partner): as the sequence (Q8TAF3 whole entry partner) above

[16] = target: USP8 (Homo sapiens, UniProt P40818); assay: in vitro DUB selectivity; assay type: biochemical
[17] = target: USP14 (Homo sapiens, UniProt P54578); assay: in vitro DUB selectivity
[18] = target: USP11 (Homo sapiens, UniProt P51784); assay: in vitro DUB selectivity; assay type: biochemical
Sequence of USP11 (P51784 whole entry): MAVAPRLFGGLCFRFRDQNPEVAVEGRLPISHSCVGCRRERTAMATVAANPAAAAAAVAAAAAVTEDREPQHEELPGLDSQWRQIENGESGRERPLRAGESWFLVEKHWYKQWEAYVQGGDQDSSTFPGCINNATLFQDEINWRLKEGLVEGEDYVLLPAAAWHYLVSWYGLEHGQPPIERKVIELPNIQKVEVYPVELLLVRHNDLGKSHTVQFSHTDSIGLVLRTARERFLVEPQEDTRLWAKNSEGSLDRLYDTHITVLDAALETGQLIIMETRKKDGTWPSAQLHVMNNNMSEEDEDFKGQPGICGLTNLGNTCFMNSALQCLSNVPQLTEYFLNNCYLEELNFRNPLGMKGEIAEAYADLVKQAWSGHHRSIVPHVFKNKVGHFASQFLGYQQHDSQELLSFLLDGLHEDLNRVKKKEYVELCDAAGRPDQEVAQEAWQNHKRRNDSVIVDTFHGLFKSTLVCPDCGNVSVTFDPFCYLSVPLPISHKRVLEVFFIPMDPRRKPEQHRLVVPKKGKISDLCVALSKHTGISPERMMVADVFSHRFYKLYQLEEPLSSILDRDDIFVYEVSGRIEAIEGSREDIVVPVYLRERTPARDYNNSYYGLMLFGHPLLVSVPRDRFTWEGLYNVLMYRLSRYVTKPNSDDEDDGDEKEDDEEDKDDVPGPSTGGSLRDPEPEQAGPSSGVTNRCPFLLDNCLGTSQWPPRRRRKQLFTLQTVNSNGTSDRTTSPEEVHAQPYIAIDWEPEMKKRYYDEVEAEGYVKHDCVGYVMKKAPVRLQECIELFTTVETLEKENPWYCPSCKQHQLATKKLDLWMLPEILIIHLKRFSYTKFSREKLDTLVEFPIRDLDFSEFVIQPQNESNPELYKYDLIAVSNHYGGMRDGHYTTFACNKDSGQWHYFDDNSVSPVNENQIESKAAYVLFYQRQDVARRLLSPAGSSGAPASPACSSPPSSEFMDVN

[19] = target: T1, USP1-UAF1; assay: inhibition mechanism determination; assay type: biochemical
[20] = system: DR-U2OS cells; assay: HR assay; assay type: cell-based, human; conditions: 30 μM ML323, 2.56% in the absence of ML323
[21] = system: USP8, USP7, CYLD, USP5, USP14, UCH-L3 and UCH-L1 in HEK293T cells; assay: cellular activity-based DUB profiling with HA-Ub-VME; assay type: cell-based, human; conditions: 100 μM cisplatin, ML323 0.5 to 50 μM
[22] = system: PD20 + D2 cells; assay: UV sensitivity colony-forming assay; assay type: cell-based, human; conditions: with ML323
[23] = target: USP21 (Homo sapiens, UniProt Q9UK80); assay: in vitro DUB selectivity; assay type: biochemical
Sequence of USP21 (Q9UK80 209-563): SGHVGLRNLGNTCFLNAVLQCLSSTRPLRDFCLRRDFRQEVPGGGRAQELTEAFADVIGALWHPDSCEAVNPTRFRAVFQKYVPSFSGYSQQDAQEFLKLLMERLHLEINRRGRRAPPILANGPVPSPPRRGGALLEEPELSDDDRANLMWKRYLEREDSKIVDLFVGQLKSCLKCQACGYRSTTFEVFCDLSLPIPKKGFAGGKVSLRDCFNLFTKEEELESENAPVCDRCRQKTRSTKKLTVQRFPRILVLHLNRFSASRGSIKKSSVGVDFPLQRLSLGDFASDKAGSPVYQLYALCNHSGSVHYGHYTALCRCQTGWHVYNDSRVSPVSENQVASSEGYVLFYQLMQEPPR

[24] = target: USP10 (Homo sapiens, UniProt Q14694); assay: in vitro DUB selectivity
[25] = target: SENP1 (Homo sapiens, UniProt Q9P0U3); assay: in vitro deSUMOylase selectivity; assay type: biochemical
[26] = target: T1, USP1-UAF1; assay: HA-Ub-VME labeling of purified USP1-UAF1; conditions: biochemical assay
[27] = system: DUBs in the UCH, OTU and MJD families; assay: in vitro DUB profiling
[28] = target: USP5 (Homo sapiens, UniProt P45974); assay: in vitro DUB selectivity; assay type: biochemical
Sequence of USP5 (P45974 whole entry): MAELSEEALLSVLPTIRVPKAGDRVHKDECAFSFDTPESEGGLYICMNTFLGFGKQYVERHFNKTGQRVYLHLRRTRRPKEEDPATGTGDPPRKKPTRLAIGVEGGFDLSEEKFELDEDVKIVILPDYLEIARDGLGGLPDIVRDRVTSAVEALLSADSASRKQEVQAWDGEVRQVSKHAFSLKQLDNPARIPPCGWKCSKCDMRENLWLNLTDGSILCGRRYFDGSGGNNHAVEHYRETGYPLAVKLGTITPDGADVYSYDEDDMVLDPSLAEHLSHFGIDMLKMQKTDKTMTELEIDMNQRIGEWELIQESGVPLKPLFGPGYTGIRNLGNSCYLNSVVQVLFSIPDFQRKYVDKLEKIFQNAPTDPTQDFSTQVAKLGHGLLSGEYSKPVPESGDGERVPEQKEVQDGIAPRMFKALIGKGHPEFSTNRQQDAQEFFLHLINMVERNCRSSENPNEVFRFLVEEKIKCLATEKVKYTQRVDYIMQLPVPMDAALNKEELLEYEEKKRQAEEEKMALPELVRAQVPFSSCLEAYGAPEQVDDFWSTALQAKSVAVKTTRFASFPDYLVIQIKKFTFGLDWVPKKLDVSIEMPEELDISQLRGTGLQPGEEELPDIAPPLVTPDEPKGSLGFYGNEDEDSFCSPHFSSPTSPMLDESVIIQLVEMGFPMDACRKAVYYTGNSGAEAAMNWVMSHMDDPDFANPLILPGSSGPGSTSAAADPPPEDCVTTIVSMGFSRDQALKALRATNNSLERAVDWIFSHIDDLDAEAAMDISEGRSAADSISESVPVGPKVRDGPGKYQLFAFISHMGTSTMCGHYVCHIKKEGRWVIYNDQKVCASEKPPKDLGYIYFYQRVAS

[29] = system: PD20 cells; assay: UV sensitivity colony-forming assay; assay type: cell-based, human; conditions: 20 μM ML323
[30] = system: 451 kinases; assay: in vitro kinase profiling; assay type: biochemical
[31] = system: 70 unrelated proteases; assay: in vitro protease profiling
[32] = target: T1, USP1-UAF1; assay: reversibility; assay type: biochemical; conditions: 100-fold dilution after treatment at ten times the IC50 for 15, 30 and 60 min
[33] = target: NEDP1 (Homo sapiens, UniProt Q96LD8); assay: in vitro deneddylase selectivity; assay type: biochemical
Sequence of NEDP1 (Q96LD8 whole entry): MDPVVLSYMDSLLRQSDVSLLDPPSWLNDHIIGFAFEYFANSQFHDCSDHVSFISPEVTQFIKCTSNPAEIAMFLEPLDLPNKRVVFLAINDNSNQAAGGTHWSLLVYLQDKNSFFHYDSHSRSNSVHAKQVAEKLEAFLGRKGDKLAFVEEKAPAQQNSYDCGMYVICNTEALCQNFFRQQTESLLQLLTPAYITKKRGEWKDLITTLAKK

[34] = system: USP1 shRNA knockout H596 cell strain; assay: colony-forming assay in USP1 shRNA cells; assay type: cell-based, human

In the case of `N.N.[Cl][Pt][Cl]` [cisplatin, reference compound], the “FANCD2 subnuclear foci formation” value [1] is reported as 59.4%, the “change in levels of Ub-PCNA and Ub-FANCD2” value [2] is reported as “small increase” and the “population of cells in S phase” value ([3]; H596, cisplatin 5 μM, ML323 20 μM) is reported as 45%. The EC50 [4] was 74 nM, the “SCE events per chromosome” value [5] was 0.99 SCE events per chromosome and the EC50 ([6]; read-out: EC50 of cell killing, H596, single agent) was 486 nM. The EC50 [7] was 12300 nM.
In the case of `O=c1[nH]c2ccccc2n1C1CCN(CCCC(c2ccc(F)cc2)c2ccc(F)cc2)CC1` [pimozide], the “affinity as inhibitor of human USP1-UAF1” value [8] is listed as “low micromolar”.
For `CC(C)(Sc1ccc(CCN(CCCCC2CCCCC2)C(=O)NC2CCCCC2)cc1)C(=O)O` [GW7647], the “affinity as inhibitor of human USP1-UAF1” value [8] is listed as “low micromolar”.
With `Cc1cnc(-c2ccccc2C(C)C)nc1NCc1ccc(-n2ccnn2)cc1` [ML323] the “labeling of cellular USP1 by HA-Ub-VME” value [9] was “clear decrease in the intensity of the labeled USP1 band”, the “FANCD2 subnuclear foci formation” value [1] was “no substantial change” and the “inhibition of USP2” value [10] was “little to no inhibition”. For the same compound, the “Ub-PCNA level, cisplatin vs combination of ML323 and cisplatin” value [11] was “little difference in Ub-PCNA levels”, the “LD50 of UV sensitivity” value [12] was 4.7 J m^−2 and the “decrease of UV LD50 vs UV treatment alone” value [12] was 42%. For the same compound, the “disruption of the USP1-UAF1 complex” value [13] was “ruled out the possibility that ML323 acts as a disruptor of the USP1-UAF1 complex”, the “LD50 of UV sensitivity” value [14] was 3.2 J m^−2 and the “inhibition of USP46-UAF1” value [15] was “did not inhibit”. For the same compound, the “inhibition of USP8” value [16] was “little to no inhibition”, the “inhibition of USP14” value [17] was “little to no inhibition” and the “inhibition of USP11” value [18] was “little to no inhibition”. For the same compound, the “change in levels of Ub-PCNA and Ub-FANCD2” value [2] was “increase in the monoubiquitination of PCNA and FANCD2 was also observed”, the “time to effect on PCNA ubiquitination after treatment” value ([2]; H596, ML323 alone or in combination with cisplatin) was 3 to 6 h and the “level of Ub-H2A” value ([2]; H596, ML323 alone or with cisplatin) was “did not affect the level of Ub-H2A”. The “concentration at which increase in Ub-PCNA level is seen” value ([2]; H596, absence or presence of cisplatin, 6 h) was no less than 5 µM, the inhibition mechanism ([19]; Lineweaver-Burk, di-Ub cleavage) was “mixed inhibition mechanism” and the “inhibition constant for the enzyme-substrate complex (K'i)” value ([19]; mixed inhibition) was 183 nM. For the same compound, the “I-SceI-induced HR frequency” value [20] was 0.81%, the “labeling of other cellular DUBs by HA-Ub-VME” value [21] was “did not inhibit the labeling of the DUBs tested” and the “LD50 of UV sensitivity” value [22] was 3.4 J m^−2. For the same compound, the “inhibition of USP21” value [23] was “little to no inhibition”, the “cell cycle delay or arrest” value ([3]; H596, ML323 alone 20 μM) was “did not result in cell cycle delay or arrest” and the “inhibition of USP10” value [24] was “little to no inhibition”. The “inhibition of SENP1” value [25] was “did not inhibit”, the “labeling of USP1-UAF1 by HA-Ub-VME” value [26] was “inhibited the labeling of USP1-UAF1 by HA-Ub-VME” and the “inhibition of DUBs of UCH, OTU and MJD families” value [27] was “little to no inhibition”. The “inhibition of USP5” value [28] was “little to no inhibition”, the “LD50 of UV sensitivity” value [29] was 2.8 J m^−2 and the “SCE events per chromosome” value [5] was 0.13 SCE events per chromosome. The EC50 ([6]; Homo sapiens, NCI-H596, read-out: EC50 of cell killing) was greater than 10000 nM, the inhibition of kinases [30] was “no substantial inhibition” and the “inhibition of other proteases” value [31] was “no substantial inhibition”. The reversibility of inhibition [32] was “reversible inhibitor”, the “inhibition of NEDP1” value [33] was “did not inhibit” and the sensitization to cisplatin [34] was “no further sensitization to cisplatin”.
